Laboratory results as given in ChEMBL document CHEMBL1156967 (Bioorg Med Chem Lett, 2010).

What was measured:
[1] = target: Mitogen-activated protein kinase 14 (Homo sapiens, UniProt Q16539); assay: Inhibition of p38alpha assessed as gamma-[33P]ATP incorporation by scintillation counting
[2] = target: Mitogen-activated protein kinase 11 (Homo sapiens, UniProt Q15759); assay: Inhibition of p38beta assessed as gamma-[33P]ATP incorporation by scintillation counting
Rattus norvegicus [3] = assay: Antiinflammatory activity in Lewis rat plasma assessed as reduction in LPS-stimulated TNFalpha accumulation at 5 mg/kg, ig administered 4 hrs before LPS challenge measured after […] by ELISA; type: functional; settings: po, route intragastric
[4] = Selectivity ratio of IC50 for p38 beta to IC50 for p38alpha
[5] = Volume of distribution in rat at 5 mg/kg, iv; type: ADME, organism-based; set-up: dose 5 mg/kg, route intravenous; settings: in vivo
[6] = Volume of distribution in dog at 2.5 mg/kg, iv; type: ADME, organism-based, Canis lupus familiaris; set-up: dose 2.5 mg/kg, route intravenous; settings: in vivo
[7] = Half life in dog at 2.5 mg/kg, iv; type: ADME, organism-based, Canis lupus familiaris; set-up: dose 2.5 mg/kg, route intravenous; settings: in vivo
Mus musculus = assay: Antiarthritic activity against collagen-induced arthritis in DBA/1 mouse chronic CIA model assessed as incidence of arthritis at 30 mg/kg, po after 21 days; type: functional
[8] = Intrinsic clearance in human liver microsomes; type: ADME, Microsome
[9] = Bioavailability in dog at 2.5 mg/kg, iv; type: ADME, organism-based, Canis lupus familiaris; settings: in vivo
[10] = Half life in human liver microsomes; type: ADME, Microsome
[11] = Half life in rat at 5 mg/kg, iv; type: ADME, organism-based; set-up: dose 5 mg/kg, route intravenous; settings: in vivo
hERG (KCNH2) = hERG (KCNH2) (Homo sapiens, UniProt Q12809); assay: Displacement of dofetilide from human ERG at 10 uM; settings: probe dofetilide
Sequence of hERG (KCNH2) (Q12809 whole entry): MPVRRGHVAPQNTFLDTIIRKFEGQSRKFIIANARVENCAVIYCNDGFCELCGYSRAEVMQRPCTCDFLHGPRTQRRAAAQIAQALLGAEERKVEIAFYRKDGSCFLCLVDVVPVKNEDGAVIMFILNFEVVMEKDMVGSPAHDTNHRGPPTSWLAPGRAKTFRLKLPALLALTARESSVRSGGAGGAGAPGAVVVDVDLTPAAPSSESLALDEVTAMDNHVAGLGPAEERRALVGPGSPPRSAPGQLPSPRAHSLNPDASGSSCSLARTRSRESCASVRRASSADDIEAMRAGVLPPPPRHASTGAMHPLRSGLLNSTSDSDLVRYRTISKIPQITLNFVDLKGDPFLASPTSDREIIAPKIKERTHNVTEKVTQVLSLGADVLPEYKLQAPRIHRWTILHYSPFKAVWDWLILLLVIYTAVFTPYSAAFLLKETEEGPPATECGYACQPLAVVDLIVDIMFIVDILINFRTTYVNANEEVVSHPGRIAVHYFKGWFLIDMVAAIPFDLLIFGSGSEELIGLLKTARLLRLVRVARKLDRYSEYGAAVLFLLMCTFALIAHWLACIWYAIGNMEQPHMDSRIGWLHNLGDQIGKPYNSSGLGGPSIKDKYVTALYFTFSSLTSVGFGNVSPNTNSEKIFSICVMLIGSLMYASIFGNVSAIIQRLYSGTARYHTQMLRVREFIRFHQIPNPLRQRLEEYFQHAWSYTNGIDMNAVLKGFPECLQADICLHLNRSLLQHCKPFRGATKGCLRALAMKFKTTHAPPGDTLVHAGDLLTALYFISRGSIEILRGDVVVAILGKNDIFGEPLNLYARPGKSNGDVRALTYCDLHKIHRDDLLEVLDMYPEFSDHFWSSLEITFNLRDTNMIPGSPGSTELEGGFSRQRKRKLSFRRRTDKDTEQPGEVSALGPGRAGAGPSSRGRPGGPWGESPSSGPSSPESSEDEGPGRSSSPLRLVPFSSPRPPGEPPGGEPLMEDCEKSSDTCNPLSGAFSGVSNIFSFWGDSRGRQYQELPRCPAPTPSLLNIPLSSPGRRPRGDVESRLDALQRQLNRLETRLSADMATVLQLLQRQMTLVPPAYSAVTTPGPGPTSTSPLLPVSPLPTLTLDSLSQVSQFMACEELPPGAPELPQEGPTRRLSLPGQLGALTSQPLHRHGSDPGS

[12] = Bioavailability in rat at 5 mg/kg, iv; type: ADME, organism-based; settings: in vivo
Rattus norvegicus [13] = assay: Antiinflammatory activity in Lewis rat assessed as reduction in LPS-stimulated TNFalpha accumulation at 1 mg/kg, ig administered 4 hrs before LPS challenge measured after […] by ELISA; type: functional; settings: po, route intragastric
[14] = Clearance in rat at 5 mg/kg, iv; type: ADME, organism-based; set-up: dose 5 mg/kg, route intravenous; settings: in vivo
[15] = Clearance in dog at 2.5 mg/kg, iv; type: ADME, organism-based, Canis lupus familiaris; set-up: dose 2.5 mg/kg, route intravenous; settings: in vivo
Blood = assay: Antiinflammatory activity against LPS-induced TNFalpha production in human whole blood treated 1 hr before LPS challenge measured after 4 hrs by ELISA; type: functional, tissue-based
Rattus norvegicus [16] = assay: Antiinflammatory activity in Lewis rat plasma assessed as reduction in LPS-stimulated TNFalpha accumulation at 20 mg/kg, ig administered 4 hrs before LPS challenge measured after […] by ELISA; type: functional; settings: po, route intragastric
[17] = target: Voltage-gated inwardly rectifying potassium channel KCNH2 (Homo sapiens, UniProt Q12809); assay: Inhibition of human ERG by patch clamp technique
Sequence of Voltage-gated inwardly rectifying potassium channel KCNH2 (Q12809 whole entry): as above

Sequence of Mitogen-activated protein kinase 11 (Q15759 whole entry): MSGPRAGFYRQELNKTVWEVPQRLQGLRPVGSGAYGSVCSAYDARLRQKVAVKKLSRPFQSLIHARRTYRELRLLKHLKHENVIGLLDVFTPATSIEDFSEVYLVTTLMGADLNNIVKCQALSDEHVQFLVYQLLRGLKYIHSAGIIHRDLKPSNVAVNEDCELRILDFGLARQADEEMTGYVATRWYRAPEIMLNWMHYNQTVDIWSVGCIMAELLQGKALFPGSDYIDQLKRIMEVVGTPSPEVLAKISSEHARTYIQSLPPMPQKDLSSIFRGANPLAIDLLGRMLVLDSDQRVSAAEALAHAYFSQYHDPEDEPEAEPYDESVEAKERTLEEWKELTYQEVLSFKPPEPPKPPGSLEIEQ
Sequence of Mitogen-activated protein kinase 14 (Q16539 whole entry): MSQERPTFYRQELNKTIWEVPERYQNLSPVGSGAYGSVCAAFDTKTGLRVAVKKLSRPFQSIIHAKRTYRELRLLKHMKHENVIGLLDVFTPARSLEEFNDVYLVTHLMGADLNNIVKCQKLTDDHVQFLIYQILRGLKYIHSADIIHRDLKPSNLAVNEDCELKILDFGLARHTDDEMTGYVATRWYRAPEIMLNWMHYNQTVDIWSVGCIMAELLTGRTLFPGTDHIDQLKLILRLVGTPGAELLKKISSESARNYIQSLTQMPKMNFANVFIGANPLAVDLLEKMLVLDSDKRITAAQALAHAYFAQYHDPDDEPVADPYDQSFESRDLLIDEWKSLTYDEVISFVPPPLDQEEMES

IC50 [1]	IC50 [2]	Compound	inhibition in vivo at 5 mg/kg (Rattus norvegicus [3])	further results
54.7 nM	1960 nM	CN1CCC(c2[nH]nc(-c3ccc(F)cc3)c2-c2ccncc2)CC1	77%	Ratio IC50 [4]: 35
–	1050 nM	CN1CCC(c2[nH]nc(-c3cccc(Cl)c3)c2-c2ccncc2)CC1	27%	–
90 nM	2520 nM	CN1CCCC(c2[nH]nc(-c3ccc(F)cc3)c2-c2ccncc2)C1 (centres undefined)	63%	Ratio IC50 [4]: 28
40.5 nM	3770 nM	CN1CCC(c2[nH]nc(-c3ccc(C(F)(F)F)cc3)c2-c2ccncc2)CC1	22%	–
–	3450 nM	O=C(CO)N1CCC(c2n[nH]c(-c3ccc(Cl)cc3)c2-c2ccncn2)CC1 [SD-0006]	87%	Vd [5]: 1.74 L/kg; Vd [6]: 1.07 L/kg; half-life [7]: 269 min; Activity (Mus musculus): 16%; CLint scaled [8]: < 8 mL/min/kg; bioavailability [9]: > 80%; half-life [10]: > 120 min; half-life [11]: 243 min; inhibition at 10 µM (hERG (KCNH2)): 16%; bioavailability [12]: > 80%; inhibition in vivo at 1 mg/kg (Rattus norvegicus [13]): 81%; clearance [14]: 4.96 mL/min/kg; clearance [15]: 2.92 mL/min/kg
19 nM	3380 nM	O[C@H]1CCC[C@@H]1N1CCC(c2[nH]nc(-c3ccc(Cl)cc3)c2-c2ccncn2)CC1	70%	inhibition in vivo at 1 mg/kg (Rattus norvegicus [13]): 40%
35 nM	2540 nM	OCCN1CCC(c2[nH]nc(-c3ccc(Cl)cc3)c2-c2ccncn2)CC1	88%	Activity (Mus musculus): 61%; CLint scaled [8]: 21.4 mL/min/kg; half-life [10]: 47.6 min; inhibition at 10 µM (hERG (KCNH2)): 46%; inhibition in vivo at 1 mg/kg (Rattus norvegicus [13]): 80%; IC50 (Blood): 490 nM
48.3 nM	404 nM	Fc1ccc(-c2n[nH]c(C3CCCNC3)c2-c2ccncc2)cc1 (centres undefined)	–	Ratio IC50 [4]: 6
152 nM	3710 nM	CC(=O)N1CCC(c2[nH]nc(-c3ccc(Cl)cc3)c2-c2ccncn2)CC1	90%	Activity (Mus musculus): 50%; CLint scaled [8]: 9.5 mL/min/kg; half-life [10]: 102 min; inhibition in vivo at 1 mg/kg (Rattus norvegicus [13]): 72%
31.6 nM	2680 nM	CN1CCC(c2[nH]nc(-c3ccc(Cl)cc3)c2-c2ccncc2)CC1	71%	Ratio IC50 [4]: 84
198 nM	4100 nM	CS(=O)(=O)N1CCC(c2[nH]nc(-c3ccc(Cl)cc3)c2-c2ccncn2)CC1	89%	Activity (Mus musculus): 44%; CLint scaled [8]: 18.1 mL/min/kg; half-life [10]: 53.9 min; inhibition in vivo at 1 mg/kg (Rattus norvegicus [13]): 26%; IC50 (Blood): > 5000 nM
14 nM	1650 nM	NS(=O)(=O)N1CCC(c2[nH]nc(-c3ccc(Cl)cc3)c2-c2ccncc2)CC1	68%	–
99.6 nM	3070 nM	Cc1ccc(-c2n[nH]c(C3CCN(C)CC3)c2-c2ccncc2)cc1	–	inhibition in vivo at 20 mg/kg (Rattus norvegicus [16]): 44%
47 nM	3290 nM	Clc1ccc(-c2n[nH]c(C3CCN(Cc4ccncc4)CC3)c2-c2ccncn2)cc1	27%	–
25.3 nM	510 nM	Fc1ccc(-c2n[nH]c(C3CCNCC3)c2-c2ccncc2)cc1	2%	–
70 nM	3530 nM	CS(=O)(=O)N1CCC(c2[nH]nc(-c3ccc(Cl)cc3)c2-c2ccncc2)CC1	75%	–
67.3 nM	2350 nM	Cc1cccc(-c2n[nH]c(C3CCN(C)CC3)c2-c2ccncc2)c1	–	inhibition in vivo at 20 mg/kg (Rattus norvegicus [16]): 81%

IC50 [1]	IC50 [2]	Compound	inhibition in vivo at 5 mg/kg (Rattus norvegicus [3])	further results
68 nM	3130 nM	CC(=O)N1CCC(c2[nH]nc(-c3ccc(Cl)cc3)c2-c2ccncc2)CC1	66%	Activity (Mus musculus): 50%; CLint scaled [8]: 22.5 mL/min/kg; half-life [10]: 43.3 min
106 nM	6550 nM	COCCCN1CCC(c2[nH]nc(-c3ccc(Cl)cc3)c2-c2ccncc2)CC1	–	–
88 nM	9780 nM	CC(C)(O)CN1CCC(c2[nH]nc(-c3ccc(Cl)cc3)c2-c2ccncn2)CC1	34%	inhibition in vivo at 1 mg/kg (Rattus norvegicus [13]): 3%; IC50 (Blood): 1000 nM
205 nM	9500 nM	Clc1ccc(-c2n[nH]c(C3CCN(C4CCOCC4)CC3)c2-c2ccncn2)cc1	46%	IC50 (Blood): > 5000 nM
–	2770 nM	CC(=O)N1CCC(c2[nH]nc(-c3ccc(F)cc3)c2-c2ccncc2)CC1	41%	IC50 [17]: 790 nM
80 nM	6720 nM	CN(C)CC(=O)N1CCC(c2[nH]nc(-c3ccc(Cl)cc3)c2-c2ccncc2)CC1	85%	–
–	3450 nM	COCC(=O)N1CCC(c2[nH]nc(-c3ccc(Cl)cc3)c2-c2ccncc2)CC1	90%	–
26.5 nM	164 nM	CN1CCC(c2[nH]nc(-c3cccc(C(F)(F)F)c3)c2-c2ccncc2)CC1	6%	–
–	2320 nM	CN1CCC(c2[nH]nc(-c3ccc(Cl)cc3)c2-c2ccncn2)CC1	63%	Activity (Mus musculus): 20%; CLint scaled [8]: 31.5 mL/min/kg; half-life [10]: 31.2 min; inhibition at 10 µM (hERG (KCNH2)): 51%; inhibition in vivo at 1 mg/kg (Rattus norvegicus [13]): 36%; IC50 (Blood): 800 nM
126 nM	4340 nM	O=C(O)CN1CCC(c2[nH]nc(-c3ccc(Cl)cc3)c2-c2ccncc2)CC1	20%	–
–	1790 nM	O=C(CO)N1CCC(c2[nH]nc(-c3ccc(Cl)cc3)c2-c2ccncc2)CC1	85%	Activity (Mus musculus): 60%; CLint scaled [8]: 15.8 mL/min/kg; half-life [10]: 62 min; inhibition at 10 µM (hERG (KCNH2)): 24%
88 nM	3480 nM	CN(C)C(=O)N1CCC(c2[nH]nc(-c3ccc(Cl)cc3)c2-c2ccncn2)CC1	88%	inhibition in vivo at 1 mg/kg (Rattus norvegicus [13]): 53%
41 nM	3390 nM	OCCN1CCC(c2[nH]nc(-c3ccc(Cl)cc3)c2-c2ccncc2)CC1	88%	Activity (Mus musculus): 70%; CLint scaled [8]: 32 mL/min/kg; half-life [10]: 30.5 min; inhibition at 10 µM (hERG (KCNH2)): 61%
31 nM	7410 nM	Clc1ccc(-c2n[nH]c(C3CCN(C4CCOC4)CC3)c2-c2ccncn2)cc1 (centres undefined)	70%	Activity (Mus musculus): 50%; CLint scaled [8]: 16.3 mL/min/kg; half-life [10]: 61.3 min; inhibition at 10 µM (hERG (KCNH2)): 35%; inhibition in vivo at 1 mg/kg (Rattus norvegicus [13]): 80%; IC50 (Blood): 520 nM
70 nM	6720 nM	COCCN1CCC(c2[nH]nc(-c3ccc(Cl)cc3)c2-c2ccncc2)CC1	84%	Activity (Mus musculus): 22%; CLint scaled [8]: 47.7 mL/min/kg; half-life [10]: 21.5 min; inhibition at 10 µM (hERG (KCNH2)): 74%
–	3250 nM	COCC(=O)N1CCC(c2[nH]nc(-c3ccc(Cl)cc3)c2-c2ccncn2)CC1	88%	inhibition in vivo at 1 mg/kg (Rattus norvegicus [13]): 71%
184 nM	2780 nM	CC(C)(CO)N1CCC(c2[nH]nc(-c3ccc(Cl)cc3)c2-c2ccncn2)CC1	0%	–
